Paper PMC8325119, “A Novel Class of Functionalized Synthetic Fluoroquinolones with Dual Antiproliferative - Antimicrobial Capacities” (Asian Pacific Journal of Cancer Prevention : APJCP, 2021)
Values after ≈ are worked out from the molar mass of the structure shown. Values joined by “and” are separate entries in the source; they are usually repeats but may differ in a detail not shown here. Identical values can stand only once. Like-named read-outs stand apart in the source and are kept apart here.

Legend:
[1] = tested on: PDL Fibroblasts; experiment: SRB cytotoxicity on normal periodontal ligament fibroblasts, selective cytotoxicity; type: cell-based, Human; settings: for Selectivity index SI (HELA): IC50 on PDL fibroblasts divided by IC50 on HELA; for IC50 / IC50 value PDL Fibroblasts: normal fibroblasts, SRB, 72 h, mean ± SD; for Selectivity index SI (PANC 1): IC50 on PDL fibroblasts divided by IC50 on PANC 1; for Selectivity index SI (K562): IC50 on PDL fibroblasts divided by IC50 on K562
Experimental: (§1) The cytotoxicity measurements were determined using Sulforhodamine B (SRB) colorimetric assay for cytotoxicity screening. The mechanism of reduction of cell viability was adopted as described previously (Arabiyat et al., 2016a,b; 2017; Alabsi et al., 2018; Jumah, 2018; AlShahrabi et al., 2020). Human periodontal ligament fibroblasts (PDL) are a primary normal cell culture for verification of selective cytotoxicity. […] Selectivity ratio as indicative factor of the safety of compounds was calculated by dividing IC50 of tested compound on normal fibroblasts by IC50 of the same compound on specific pathological cell line (Hoffman et al., 2011).

[2] = tested on: A375.S2 cell line; experiment: SRB cytotoxicity assay, A375.S2 melanoma cell line
Experimental: (§2) All reagents and chemicals of analytical grade were obtained from Sigma (Dorset, UK); unless stated otherwise. All chemicals, reagents and solvents (of analytical grade) were used directly without further purification. MCF7 cell line ATCC® HTB-22™, T47D cell line ATCC® HTB-133™, K562 cell line ATCC® CCL-243™, Panc1 cell line ATCC® CRL-1469™. A375.S2 cell line ATCC® CRL-1872™, A549 cell line ATCC® CCL-185™, HELA cell line ATCC® CCL-2™ were cultured in Dulbecco’s modified eagle’s medium (DMEM). (DMEM) containing foetal bovine serum (FBS) (Bio Whittaker, Verviers, Belgium), 4-(2-hydroxyethyl)-1-piperazine ethane sulfonic acid (HEPES) Buffer, L-glutamine, gentamicin, penicillin, and streptomycin sulphate (Sigma, St. Luis, MO, USA), trypsin, trypan blue, Ciprofloxacin HCl from Aarti drugs Ltd/India, was a kind gift from Pharma International Company- Amman; Fluconazole from Neopharma, United Arab Emirates, a kind gift from Pharmaceutical Research Unit, Amman; Trypon soya agar (TSA), trypon soya broth (TSB), sabouraud dextrose agar (SDA) were obtained from Liofilchem (Italy) or Oxoid LTD (Basingstoke, England), they were reconstituted and sterilized by autoclave at 121 °C for 15 min.
as §1

[3] = tested on: T47D cell line; experiment: cells; settings: 72 h; for Cytotoxicity IC50 value, T47D cell line: value in brackets; for IC50: read-out: Cytotoxicity IC50 value, T47D cell line
Experimental: as §2, §1

[4] = tested on: K562 cell line; experiment: SRB cytotoxicity assay, K562 leukaemia cell line
Experimental: as §2, §1

[5] = tested on: HELA cell line; experiment: SRB cytotoxicity assay, HELA cervical cancer cell line
Experimental: as §2, §1

[6] = tested on: A549 cell line; experiment: SRB cytotoxicity assay, A549 lung cancer cell line
Experimental: as §2, §1

[7] = tested on: MCF7 cell line; experiment: SRB cytotoxicity assay, MCF7 breast cancer cell line
Experimental: as §2, §1

[8] = tested on: PANC 1 cell line; experiment: SRB cytotoxicity assay, PANC 1 pancreatic cancer cell line
Experimental: as §2, §1

[9] = 0.1-200 μg/mL range, NI = lack of cytotoxicity in range
[10] = SRB, 0.1-200 μg/mL range, mean ± SD
[11] = SRB, 0.1-200 μg/mL range, mean ± SD, NI = lack of cytotoxicity in range
[12] = Homo sapiens, Fibroblast, 0.1-200 μg/mL range, NI = lack of cytotoxicity in range
[13] = Homo sapiens, A375-S2, 72 h, read-out: Cytotoxicity IC50 value, A375.S2 cell line
[14] = Homo sapiens, PANC-1, 72 h, read-out: Cytotoxicity IC50 value, PANC 1 cell line
[15] = Homo sapiens, K562, 72 h, read-out: Cytotoxicity IC50 value, K562 cell line, SRB, 72 h, 0.1-200 μg/mL range, mean ± SD, value in brackets
[16] = Homo sapiens, K562, 72 h, read-out: Cytotoxicity IC50 value, K562 cell line, SRB, 72 h, 0.1-200 μg/mL range, mean ± SD, NI = lack of cytotoxicity in range
[17] = Homo sapiens, HeLa, 72 h, read-out: Cytotoxicity IC50 value, HELA cell line, SRB, 72 h, 0.1-200 μg/mL range, mean ± SD, value in brackets
[18] = Homo sapiens, HeLa, 72 h, read-out: Cytotoxicity IC50 value, HELA cell line, SRB, 72 h, 0.1-200 μg/mL range, mean ± SD, NI = lack of cytotoxicity in range
[19] = Homo sapiens, A549, 72 h, read-out: Cytotoxicity IC50 value, A549 cell line
[20] = Homo sapiens, MCF7, 72 h, read-out: Cytotoxicity IC50 value, MCF7 cell line
[21] = Homo sapiens, Fibroblast, value in brackets

Compound | IC50 [1, 12] | IC50 [2, 13] | IC50 [8, 14] | IC50 ([3]; Homo sapiens, T47D) | IC50 [4, 15] [µg/mL] | IC50 [4, 16] | IC50 [5, 17] [µg/mL] | IC50 [5, 18] | IC50 [6, 19] | IC50 [7, 20] | IC50 [1, 21] [µg/mL] | also measured
CCn1cc(C(=O)O)c(=O)c2cc(F)c3c(nnn3-c3cccc(OC)c3)c21 [13b, 9-ethyl-4-fluoro-3-(3-methoxy-phenyl)-6-oxo-6,9-dihydro-3H-[1,2, and 3] triazolo [4,5-h] quinoline-7-carboxylic acid] |  |  |  |  |  |  |  |  |  |  |  | Selectivity index SI (HELA) [1]: 7.19; IC50 [1, 9]: 332 ± 14.6 µM; IC50 value PDL Fibroblasts ([1]; value in brackets): 126.55 ± 5.58 µg/mL (≈ 331 µM); Cytotoxicity IC50 value, A375.S2 cell line [2]: 38.96 ± 3.39 µg/mL; IC50 [2]: 102 ± 8.88 µM; Cytotoxicity IC50 value, T47D cell line [3, 10]: 44.68 ± 3.49 µg/mL; IC50 [3, 11]: 117 ± 9.15 µM; Cytotoxicity IC50 value, K562 cell line [4]: 22.13 ± 0.85 µg/mL; IC50 [4]: 58 ± 2.22 µM; Cytotoxicity IC50 value, HELA cell line [5]: 15.99 ± 1.35 µg/mL; IC50 [5]: 41.9 ± 3.55 µM; Cytotoxicity IC50 value, A549 cell line [6]: 95.87 ± 9.20 µg/mL; IC50 [6]: 251 ± 24.1 µM; Cytotoxicity IC50 value, MCF7 cell line [7]: 159.18 ± 8.68 µg/mL; IC50 [7]: 417 ± 22.8 µM
CCn1cc(C(=O)O)c(=O)c2cc(F)c(Nc3cccc(OC)c3)c([N+](=O)[O-])c21 [11b, 1-ethyl-6-fluoro-7-(3-methoxy-phenylamino)-8-nitro-4-oxo-1,4-dihydro-quinoline-3-carboxylic acid] | > 200 µg/mL | > 200 µg/mL | > 200 µg/mL | > 200 µg/mL | 23.3 | 58 ± 9.12 µM | 79 | 197 ± 38.3 µM | > 200 µg/mL | > 200 µg/mL |  | 
CCn1cc(C(=O)O)c(=O)c2cc(F)c(Nc3ccc(OC)cc3OC)c([N+](=O)[O-])c21 [11c, 7-(2,4-dimethoxy-phenylamino)-1-ethyl-6-fluoro-8-nitro-4-oxo-1,4-dihydro-quinoline-3-carboxylic acid] | 285 ± 28.7 µM | > 200 µg/mL | 124 µM and 53.3 µg/mL | 431 µM and 186 µg/mL |  | > 200 µg/mL |  | > 200 µg/mL | > 200 µg/mL | > 200 µg/mL | 123 | Selectivity index SI (PANC 1) [1]: 2.31
CCCCCCc1ccc(Nc2c(F)cc3c(=O)c(C(=O)O)cn(C4CC4)c3c2[N+](=O)[O-])cc1 [3f, 1-cyclopropyl-6-fluoro-7-(4-hexyl-phenylamino)-8-nitro-4-oxo-1,4-dihydro-quinoline-3-carboxylic acid] | 119 ± 19.7 µM | 63.1 µM and 29.5 µg/mL | 1.67 mM and 779 µg/mL | 141 µM and 66 µg/mL | 30 | 64.1 ± 4.78 µM | 3.48 | 7.44 ± 0.78 µM | 63.9 µM and 29.9 µg/mL | 135 µM and 63.3 µg/mL | 55.7 | Selectivity index SI (HELA) [1]: 16.01
COc1ccc(Nc2c(F)cc3c(=O)c(C(=O)O)cn(C4CC4)c3c2[N+](=O)[O-])cc1 [3c, 1-cyclopropyl-6-fluoro-7-(4-methoxy-phenylamino)-8-nitro-4-oxo-1,4-dihydro-quinoline-3-carboxylic acid] | 107 ± 5.61 µM | 274 µM and 113 µg/mL | 40.7 µM and 16.8 µg/mL | 66 µM and 27.3 µg/mL | 32.7 | 79.1 ± 8.69 µM | 81.7 | 198 ± 11.1 µM | 64.4 µM and 26.6 µg/mL | 54.2 µM and 22.4 µg/mL | 44.3 | Selectivity index SI (PANC 1) [1]: 2.63; Cytotoxicity IC50 value, K562 cell line ([4]; SRB, 72 h, 0.1-200 μg/mL range, mean ± SD, value in brackets): 16.83 ± 0.15 µg/mL
COc1ccc(Nc2c(F)cc3c(=O)c(C(=O)O)cn(C4CC4)c3c2N)cc1 [4c, 8-amino-1-cyclopropyl-6-fluoro-7-(4-methoxy-phenylamino)-4-oxo-1,4-dihydro-quinoline-3-carboxylic acid] | 138 ± 8.26 µM | 248 µM and 95 µg/mL | 72.1 µM and 27.6 µg/mL | 77.2 µM and 29.6 µg/mL | 20 | 52.1 ± 6.9 µM | 97.8 | 255 ± 2.15 µM | 5.11 µM and 1.96 µg/mL | 57.4 µM and 22 µg/mL | 53 | Selectivity index SI (A562) ([1]; IC50 on PDL fibroblasts divided by IC50 on the cell line printed as A562): 27.07
CCn1cc(C(=O)O)c(=O)c2cc(F)c(Nc3ccccc3OC)c([N+](=O)[O-])c21 [11a, 1-ethyl-6-fluoro-7-(2-methoxy-phenylamino)-8-nitro-4-oxo-1,4-dihydro-quinoline-3 carboxylic acid] | 156 ± 11.7 µM | 1.02 mM and 411 µg/mL | 187 µM and 75.2 µg/mL | 22.8 µM and 9.16 µg/mL | 6.38 | 15.9 ± 1.75 µM | 41.4 | 103 ± 7.66 µM | 96.8 µM and 8.84 µg/mL | 67.8 µM and 27.2 µg/mL | 62.7 | Selectivity index SI (K562) [1]: 9.83
CCn1cc(C(=O)O)c(=O)c2cc(F)c(Nc3ccc(OC)cc3OC)c(N)c21 [12c, 8-amino-7-(2,4-dimethoxy-phenylamino)-1-ethyl-6-fluoro-4-oxo-1,4-dihydro-quinoline-3-carboxylic acid] | 43.8 ± 6.21 µM | 67.3 µM and 27 µg/mL | 93.5 µM and 37.5 µg/mL |  | 10.6 | 26.4 ± 4.54 µM | 15.6 | 38.8 ± 1.91 µM | 40.9 µM and 16.4 µg/mL | 101 µM and 40.4 µg/mL | 17.6 | Selectivity index SI (K562) [1]: 1.65
COc1ccccc1Nc1c(F)cc2c(=O)c(C(=O)O)cn(C3CC3)c2c1[N+](=O)[O-] [3a, 1-cyclopropyl-6-fluoro-7-(2-methoxy-phenylamino)-8-nitro-4-oxo-1,4-dihydro-quinoline-3-carboxylic acid] | 184 ± 3.69 µM |  |  | > 200 µg/mL |  |  |  |  |  |  | 76 | Selectivity index SI (MCF7) ([1]; IC50 on PDL fibroblasts divided by IC50 on MCF7): 2.71
CCn1cc(C(=O)O)c(=O)c2cc(F)c3c(nnn3-c3ccccc3OC)c21 [13a, 9-ethyl-4-fluoro-3-(2-methoxy-phenyl)-6-oxo-6,9-dihydro-3H-[1,2, and 3] triazolo [4,5-h] quinoline-7-carboxylic acid] |  |  |  |  |  |  |  |  |  |  |  | Selectivity index SI (K562) [1]: 40.01; IC50 [1, 9]: 276 ± 20.7 µM; IC50 value PDL Fibroblasts ([1]; value in brackets): 105.13 ± 7.90 µg/mL (≈ 275 µM); Cytotoxicity IC50 value, A375.S2 cell line [2]: 203.87 ± 4.80 µg/mL; IC50 [2]: 535 ± 12.6 µM; Cytotoxicity IC50 value, PANC 1 cell line [8]: 118.30 ± 6.71 µg/mL; IC50 [8]: 310 ± 17.6 µM; Cytotoxicity IC50 value, T47D cell line [3, 10]: 21.93 ± 0.87 µg/mL; IC50 [3, 11]: 57.5 ± 2.27 µM; Cytotoxicity IC50 value, K562 cell line [4]: 2.66 ± 0.49 µg/mL; IC50 [4]: 6.98 ± 1.28 µM; Cytotoxicity IC50 value, HELA cell line [5]: 20.06 ± 2.62 µg/mL; IC50 [5]: 52.6 ± 6.86 µM; Cytotoxicity IC50 value, A549 cell line [6]: 94.32 ± 1.44 µg/mL; IC50 [6]: 247 ± 3.78 µM
N.N.[Cl][Pt][Cl] [Cisplatin, cisplatin, reference compound] |  |  |  |  |  |  |  |  |  |  |  | IC50 [1, 9]: 0.71 ± 0.13 µM; IC50 value PDL Fibroblasts ([1]; value in brackets): 0.21 ± 0.04 µg/mL
CCOC(=O)c1cn(C2CC2)c2c([N+](=O)[O-])c(Cl)c(F)cc2c1=O [1E] |  | 271 µM and 121 µg/mL | 79.3 µM and 25.9 µg/mL | 108 µM and 35.4 µg/mL | 32.4 | 99.1 ± 7.5 µM | 43.3 | 133 ± 4.78 µM | 447 µM and 200 µg/mL | 220 µM and 71.9 µg/mL |  | 
